Results taken from patent US12305226B2, “Barcoded protein array for multiplex single-molecule interaction profiling” (President and Fellows of Harvard College, priority 2014, dated 2025).

Biological target: ADRB2 (Homo sapiens, UniProt P07550)
Conditions: 100 μM compound, 5 nM barcoded β-arr2, GRK2
Method: A compound library could be screened in multi-well plates, and in each well, one compound was assayed with many barcoded GPCRs and a β-arrestin-2 (β-arr2) protein bearing a well-position-associated barcode (FIG. 3C). All the samples were pooled and deposited on one slide, and the interaction of a GPCR with a compound was detected by the increased GPCR polony co-localization with the corresponding β-arr2 polonies. […] The co-localization ratios were measured at 50 imaging positions on the array for statistical analysis.
A GPCR-β-arr2 binding assay was performed by mixing a ligand with ˜1 nM GPCR-nanodisc complexes in an assay buffer A2 (20 mM HEPES, pH 7.5, 50 mM KOAc, 2 mM EDTA and 5 mM MgCl2), followed by addition of 10 nM GRK2 (Life Technologies), 0.1 mM ATP, 10 nM G protein β1γ2 subunits (KeraFAST) and 5 nM barcoded β-arr2 in a total volume of 25 μL. Compounds were assayed in parallel using a multi-well plate, and the reactions were incubated at 30° C. for 30 min. Similarly as described above, GPCR-β-arr2 complexes were crosslinked and both crosslinked and free GPCRs were purified from the reactions with the anti-HA magnetic beads. Proteins were pooled and analyzed on a single array.

Chain of ADRB2 (P07550 whole entry): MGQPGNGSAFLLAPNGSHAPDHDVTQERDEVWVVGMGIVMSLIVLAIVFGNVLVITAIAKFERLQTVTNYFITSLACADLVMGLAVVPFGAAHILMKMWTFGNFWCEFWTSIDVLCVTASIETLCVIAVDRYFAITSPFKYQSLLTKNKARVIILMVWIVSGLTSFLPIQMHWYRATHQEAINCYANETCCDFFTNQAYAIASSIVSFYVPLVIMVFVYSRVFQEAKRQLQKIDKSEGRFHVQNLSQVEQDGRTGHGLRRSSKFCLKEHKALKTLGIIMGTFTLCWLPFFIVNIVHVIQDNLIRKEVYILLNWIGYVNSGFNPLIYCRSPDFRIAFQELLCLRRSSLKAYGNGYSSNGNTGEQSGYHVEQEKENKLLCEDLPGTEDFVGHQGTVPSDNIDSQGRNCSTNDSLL

## CC(C)NCC(O)COc1cccc2[nH]ccc12 (stereo not shown) [pindolol]
  agonist type identified by polony co-localization ratios: partial
